Reference: article PMC10384657 (Virus Research, 2023)

Assays:
Vero E6 cells = conditions: 72 h
[1] = system: MPER25c peptide (S2 membrane proximal region derived); assay type: binding, SARS-CoV-2
Vero E6/TMPRSS2 = conditions: 72 h

Compound	CC50 (mean ± SD) (Vero E6 cells) [µM]	fold lower binding activity to immobilized MPER25c than PN19 [1]	binding to immobilized MPER25c (in words) [1]	ka [1] [M⁻¹ s⁻¹]	CC50 (mean ± SD) (Vero E6/TMPRSS2) [µM]	fold reduction of the expected IC50 value of PN19 produced by MPER25 (SARS-CoV-2) [fold]
CC[C@H](C)[C@H](NC(=O)[C@H](CCC(N)=O)NC(=O)[C@H](CC(C)C)NC(=O)[C@H](C)NC(=O)[C@H](C)NC(=O)CNC(=O)[C@H](C)NC(=O)CNC(=O)[C@H](Cc1ccccc1)NC(C)=O)C(=O)N1CCC[C@H]1C(=O)N[C@@H](Cc1ccccc1)C(=O)N[C@@H](C)C(=O)N[C@@H](CCSC)C(=O)N[C@@H](CCC(N)=O)C(=O)N[C@@H](CCSC)C(=O)N[C@@H](C)C(=O)N[C@@H](C)C(=O)N[C@@H](CCCNC(=N)N)C(=O)N[C@@H](Cc1ccccc1)C(N)=O [PN19Y→A904]	> 100	2-3 fold	–	–	–	–
CC[C@H](C)[C@H](NC(=O)[C@H](CCC(N)=O)NC(=O)[C@H](CC(C)C)NC(=O)[C@H](C)NC(=O)[C@H](C)NC(=O)CNC(=O)[C@H](C)NC(=O)CNC(=O)[C@H](Cc1ccccc1)NC(C)=O)C(=O)N1CCC[C@H]1C(=O)N[C@@H](Cc1ccccc1)C(=O)N[C@@H](C)C(=O)N[C@@H](CCSC)C(=O)N[C@@H](CCC(N)=O)C(=O)N[C@@H](CCSC)C(=O)N[C@@H](C)C(=O)N[C@@H](Cc1ccc(O)cc1)C(=O)N[C@@H](CCCNC(=N)N)C(=O)N[C@@H](Cc1ccccc1)C(N)=O [PN19]	> 100	–	binds to immobilized MPER25c	410.9	> 100	48
